From patent US6630594B2, “Methods of making substituted phenylketoenols” (Bayer Aktiengesellschaft, priority 1996, dated 2003)

Experiments:
Assay type in all cases: in vivo
[1] = system: green rice leaf hoppers (Nephotettix cincticeps); experiment: Nephotettix-Test (rice seedling dip); details: concentration of active compound 0.1%, after 6 days, rice seedlings dipped
Method: (§1) To produce a suitable preparation of active compound, 1 part by weight of active compound is mixed with the stated amount of solvent and the stated amount of emulsifier, and the concentrate is diluted with water to the desired concentration.
Rice seedlings (Oryzae sativa) are treated by being dipped into the preparation of active compound of the desired concentration and are populated with the green rice leaf hoppers (Nephotettix cincticeps) while the seedlings are still moist.
After the desired period of time, the kill in % is determined. 100% means that all leaf hoppers have been killed; 0% means that none of the leaf hoppers have been killed.

[2] = system: greenhouse red spider mite Tetranychus urticae; experiment: Tetranychus Test (OP-resistent/dip Treatment); details: concentration of active compound 0.1%, after 13 days, infested bean plants dipped, all stages
Method: Tetranychus Test (OP-resistent/dip Treatment)
as §1
Bean plants (Phaseolus vulgaris) which are heavily infested by all stages of the greenhouse red spider mite Tetranychus urticae are dipped into a perparation of active compound of the desired concentration.
After the desired period of time, the kill in % is determined. 100% means that all spider mites haven been killed: 0% means that none of the spider mites have been killed.

[3] = system: larvae of the mustard beetle (Phaedon cochleariae); experiment: Phaedon larvae Test (cabbage leaf dip); details: concentration of active compound 0.1%, after 7 days, cabbage leaves dipped
Method: Phaedon larvae Test [table] To produce a suitable preparation of active compound, 1 part by weight of active compound is mixed with the stated amount of solvent and the stated amount of emulsifier, and the concentrate is diluted with water to the desired concentration. Cabbage leaves (Brassica oleracea) are treated by being dipped into the preparation of active compound of the desired concentration and are populated with larvae of the mustard beetle (Phaedon cochleariae) while the leaves are still moist.

[4] = system: peach aphids (Myzus persicae); experiment: Myzus-Test (cabbage leaf dip); details: concentration of active compound 0.1%, after 6 days, infested cabbage leaves dipped
Method: To produce a suitable preparation of active compound, 1 part by weight of active compound is mixed with the state amount of solvent and the stated amount of emulsifier, and the concentrate is diluted with water to the desired concentration.
Cabbage leaves (Brassica oleracea) which are heavily infested by peach aphids (Myzus persicae) are treated by being dipped into the preparation of active compound of the desired concentration.
After the desired period of time, the kill in % is determined. 100% means that all aphids have been killed; 0% means that none of the aphids have been killed.

[5] = system: caterpillars of the owlet moth Spodoptera frugiperda; experiment: Spodoptera frugiperda Test (cabbage leaf dip); details: concentration of active compound 0.1%, after 7 days, cabbage leaves dipped
Method: Spodoptera frugiperda Test
as §1
Cabbage leaves (Brassica oleracea) are treated by being dipped into the preparation of active compound of the desired concentration and are populated with caterpillars of the owlet moth Spodoptera frugiperda) while the leaves are still moist.
After the desired period of time, the kill in % is determined. 100% means that all caterpillars have been killed; 0% means that none of the caterpillars haven been killed.

Measured: kill in %

Cc1cc(C)c(C2=C(O)C3(CCCOC3)NC2=O)c(C)c1 (stereo not drawn) [Example I-1-a-1]
100%: [1] | [2] | [3]

Cc1cc(C)c(C2=C(OC(=O)C(C)(C)C)C3(CCCOC3)NC2=O)c(C)c1 (stereo not drawn) [Example I-1-b-1]
100%: [1] | [2] | [3]

CCOC(=O)OC1=C(c2c(C)cc(C)cc2C)C(=O)NC12CCCOC2 (stereo not drawn) [Example I-1-c-1]
100%: [2] | [4] | [5]
